Test results published in US12528761B2, “Thyromimetics” (Autobahn Therapeutics, Inc., priority 2020, dated 2026).

Assays:
TRβ = molecular target: T1, TRβ (Homo sapiens, UniProt P10828); assay: TR reporter-gene assay (Gal4 DBD hybrid, luciferase), TRβ; format: cell-based; details: for EC50: HEK293-derived reporter cells, 24 hr treatment, read-out: TRβ EC50; for T3-SI (selectivity index, EC50 (TRα)/EC50 (TRβ)): class symbols
T1 construct: expressed in transfected cells; host or cells: HEK293
T1 sequence (P10828 217-461 limits assumed): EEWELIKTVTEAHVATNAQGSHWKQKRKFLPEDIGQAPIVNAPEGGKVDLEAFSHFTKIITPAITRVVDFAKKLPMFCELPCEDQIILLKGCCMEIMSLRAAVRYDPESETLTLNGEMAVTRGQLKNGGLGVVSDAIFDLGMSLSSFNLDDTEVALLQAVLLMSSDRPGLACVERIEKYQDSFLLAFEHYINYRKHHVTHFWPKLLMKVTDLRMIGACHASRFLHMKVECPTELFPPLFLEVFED
Procedure, shortened: (§1)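 HEK293 reporter cells expressing Gal4-DBD/TR ligand-binding hybrids driving firefly luciferase from a Gal4 UAS; cells pre-incubated 6 h, then treated 24 h at 37 °C in medium with 10% charcoal-stripped FBS (final DMSO 0.1–0.4%), in duplicate. Read-out was luminescence (RLU).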

[1] = Brain levels of parent acid after dosing prodrug (FIG. 1); format: in vivo; details: compared with dosing Compound 15 itself
Source text: The acid compounds of the present invention (R^1=—OR^1c and R^1c=H) are active agonists selectively activating the TRβ receptor. The amide compounds of the present invention (R^1=—NR^1aR^1b) may act as substrates for the specific hydrolase enzyme fatty acid-amide hydrolase (FAAH), which cleaves the amide, liberating the thyromimetic. Thus, prodrug conversion to drug is enhanced in tissues that express high levels of FAAH such as the central nervous system. […] The ester compounds of the present invention (R^1=—OR^1c and R^1c≠H) are also prodrugs, typically processed through the action of esterases which may exist selectively in specific tissues.

TRα = molecular target: T2, TRα (Homo sapiens, UniProt P10827); assay: TR reporter-gene assay (Gal4 DBD hybrid, luciferase), TRα; format: cell-based; details: HEK293-derived reporter cells, 24 hr treatment; read-out: TRα EC50
T2 construct: expressed in transfected cells; host or cells: HEK293
T2 sequence (P10827 1-410 isoform P10827-2): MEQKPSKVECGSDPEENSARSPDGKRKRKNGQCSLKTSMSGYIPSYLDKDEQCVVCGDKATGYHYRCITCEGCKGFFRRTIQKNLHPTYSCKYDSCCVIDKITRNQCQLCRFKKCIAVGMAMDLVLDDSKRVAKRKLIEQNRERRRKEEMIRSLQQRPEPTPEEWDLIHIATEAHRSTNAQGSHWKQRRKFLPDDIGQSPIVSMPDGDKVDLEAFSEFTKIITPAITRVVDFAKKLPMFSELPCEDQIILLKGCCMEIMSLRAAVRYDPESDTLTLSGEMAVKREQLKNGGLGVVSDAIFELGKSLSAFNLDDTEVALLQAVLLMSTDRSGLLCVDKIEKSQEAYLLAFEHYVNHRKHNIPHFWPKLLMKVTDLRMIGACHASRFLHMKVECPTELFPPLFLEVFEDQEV
Procedure, shortened: as §1

[2] = molecular target: T3, recombinant human FAAH (rhFAAH) (Homo sapiens, UniProt O00519); assay: FAAH substrate evaluation (formation of acid metabolite, LC-MS/MS); format: biochemical; set-up: key: A: ke is equal to or less than 1.0; B: ke is greater than 1.0 and less than or equal to 2.5; C: ke is greater than 2.5; NC: no conversion; details: 0.5 ng/μL rhFAAH, 1 μM test compound, pH 8.0, room temperature, 0-60 minutes
T3 construct: purchased Cayman Chemical (Ann Arbor, MI, USA)
T3 sequence (O00519 1-579): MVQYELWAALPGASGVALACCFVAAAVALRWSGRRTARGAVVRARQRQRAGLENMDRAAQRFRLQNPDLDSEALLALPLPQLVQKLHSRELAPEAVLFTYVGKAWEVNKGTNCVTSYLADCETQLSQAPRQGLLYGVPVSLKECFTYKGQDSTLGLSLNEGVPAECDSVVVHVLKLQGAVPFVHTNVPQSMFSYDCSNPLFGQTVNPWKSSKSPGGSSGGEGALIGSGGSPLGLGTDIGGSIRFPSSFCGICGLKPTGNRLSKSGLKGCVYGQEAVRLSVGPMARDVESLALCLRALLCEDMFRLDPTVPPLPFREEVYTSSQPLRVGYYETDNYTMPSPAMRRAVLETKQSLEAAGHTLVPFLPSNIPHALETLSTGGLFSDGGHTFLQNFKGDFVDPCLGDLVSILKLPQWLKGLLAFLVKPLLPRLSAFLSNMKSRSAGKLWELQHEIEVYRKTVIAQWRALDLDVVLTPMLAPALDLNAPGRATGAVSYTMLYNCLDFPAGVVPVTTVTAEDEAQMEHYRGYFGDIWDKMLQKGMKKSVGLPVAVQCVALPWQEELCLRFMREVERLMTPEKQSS
Procedure, shortened: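 Test compound at 1 μM incubated at room temperature with 0.5 ng/μL rhFAAH, 0.1% BSA in Tris-EDTA pH 8.0; parallel incubations with 1 μM PF-3845 inhibitor. Samples quenched at 0-60 min; acid metabolite quantified by LC-MS/MS, ke taken as slope of metabolite concentration versus time.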

| SMILES | EC50 (TRβ) [nM] | T3-SI (selectivity index, EC50 (TRα)/EC50 (TRβ)) (TRβ) | brain levels of the parent acid Compound 15 [1] | EC50 (TRα) [nM] | ke, observed rate constant for the acid metabolite formation [2] |
| --- | --- | --- | --- | --- | --- |
| CC(C)c1cc(Cc2c(Cl)cc(CCCC(=O)O)cc2Cl)ccc1O [Compound 16, 4-(3,5-dichloro-4-(4-hydroxy-3-isopropylbenzyl)phenyl)butanoic acid] | 100 to 1000 | +++ (T3-SI > 30×) | markedly higher brain levels | > 1000 | – |
| CONC(=O)Cc1cc(Cl)c(Cc2ccc(O)c(C(C)C)c2F)c(Cl)c1 [Compound 208, 2-(3,5-dichloro-4-(2-fluoro-4-hydroxy-3-isopropylbenzyl)phenyl)-N-methoxyacetamide] | 100 to 1000 | ++ (3× < T3-SI ≤ 30×) | – | > 1000 | A (ke is equal to or less than 1.0) |
| CNC(=O)CSCc1cc(C)c(Cc2ccc(O)c(C(C)C)c2)c(Cl)c1F [Compound 217, 2-((3-chloro-2-fluoro-4-(4-hydroxy-3-isopropylbenzyl)-5-methylbenzyl)thio)-N-methylacetamide] | > 1000 | ++ (3× < T3-SI ≤ 30×) | – | > 1000 | C (ke is greater than 2.5) |
| COC(=O)CCc1cc(Cl)c(Cc2ccc(O)c(C(C)c3ccc(F)cc3)c2F)c(Cl)c1 (stereo not shown) [Compound 17, methyl 3-(3,5-dichloro-4-(2-fluoro-3-(1-(4-fluorophenyl)ethyl)-4-hydroxybenzyl)phenyl)propanoate] | – | – | markedly higher brain levels | – | – |
| CON(C)C(=O)Cc1cc(Cl)c(Cc2ccc(O)c(C(C)C)c2F)c(Cl)c1 [Compound 105, 2-(3,5-dichloro-4-(2-fluoro-4-hydroxy-3-isopropylbenzyl)phenyl)-N-methoxy-N-methylacetamide] | > 1000 | – | – | – | NC |
| CNC(=O)CCc1cc(C)c(Cc2ccc(O)c(C(C)C)c2F)c(Cl)c1 [Compound 236, 3-(3-chloro-4-(2-fluoro-4-hydroxy-3-isopropylbenzyl)-5-methylphenyl)-N-methylpropanamide] | – | – | – | – | B (ke is greater than 1.0 and less than or equal to 2.5) |
| CC(C)CNC(=O)CNc1cc(Cl)c(Cc2ccc(O)c(C(C)C)c2F)c(Cl)c1F [Compound 164, 2-((3,5-dichloro-2-fluoro-4-(2-fluoro-4-hydroxy-3-isopropylbenzyl)phenyl)amino)-N-isobutylacetamide] | – | – | – | – | NC |
| CC(C)c1cc(Cc2c(Cl)cc(SCC(=O)NC34CC(C3)C4)cc2Cl)ccc1O [Compound 178, N-(bicyclo[1.1.1]pentan-1-yl)-2-((3,5-dichloro-4-(4-hydroxy-3-isopropylbenzyl)phenyl)thio)acetamide] | – | – | – | – | NC |
| CC(C)c1c(O)ccc(Cc2c(Cl)cc(NCC(=O)Nc3cccnc3)c(F)c2Cl)c1F [Compound 160, 2-((3,5-dichloro-2-fluoro-4-(2-fluoro-4-hydroxy-3-isopropylbenzyl)phenyl)amino)-N-(pyridin-3-yl)acetamide] | – | – | – | – | B (ke is greater than 1.0 and less than or equal to 2.5) |
